# How the values were obtained:
# Format in all cases: cell-based
# [1] = tested on: MDA-MB-231 (breast cancer); assay: Antiproliferative activity (CCK-8 cell viability), MDA-MB-231; details: Homo sapiens, 72 h, read-out: Antiproliferative activity in cancerous cells, MDA-MB-231 (inhibition of cell growth); for inhibition at 3.3 µM: Compound concentration: 3.3 μM; for inhibition at 10 µM: Compound concentration: 10 μM
# Method in brief: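 Growth inhibition of human MDA-MB-231 breast cancer cells was assessed with a Cell Counting Kit-8. Cells cultured in DMEM plus 10% FBS were seeded at 2,000-5,000 cells/well, treated after attachment, and kept 72 h at 37° C. CCK-8 solution (10 μL) was added for 4 h, and absorbance at 450 nm was compared with DMSO-treated controls.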
# [2] = tested on: alpha-smooth muscle actin (α-SMA); assay: Inhibition of TGF-β induced expression of alpha-smooth muscle actin (α-SMA) in CFSC cells (western blot); details: compound at 10 μM, TGF-β (10 ng/mL), 24 hours, band intensity vs TGF-β only
# Method in brief: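 Values are percent reduction of α-SMA band intensity relative to cells given TGF-β alone, quantified by Western blot densitometry with β-actin probed. Compound was applied at 10 μM alongside 10 ng/mL TGF-β to serum-free CFSC cultures for 24 h at 37 °C.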
# SW480 (colon cancer) = assay: Antiproliferative activity (CCK-8 cell viability), SW480; details: Homo sapiens, 72 h; for inhibition at 3.3 µM: Compound concentration: 3.3 μM; for inhibition at 3.3 µM / inhibition at 10 µM: read-out: Antiproliferative activity in cancerous cells, SW480 (inhibition of cell growth); for inhibition at 10 µM: Compound concentration: 10 μM
# Method in brief: (§1)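 Growth inhibition graded in bands from percent viability against DMSO vehicle, read as CCK-8 absorbance at 450 nm. Compound tested at 3.3, 10 or 30 μM for 72 h, 37 °C; media contained 10% FBS: DMEM for HepG2/SW480, MEM for HeLa, F-12K for A549.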
# [3] = tested on: A549 (lung adenocarcinoma); assay: Antiproliferative activity (CCK-8 cell viability), A549; details: Homo sapiens, 72 h; for inhibition at 3.3 µM: Compound concentration: 3.3 μM; for inhibition at 3.3 µM / inhibition at 10 µM: read-out: Antiproliferative activity in cancerous cells, A549 (inhibition of cell growth); for inhibition at 10 µM: Compound concentration: 10 μM
# Method in brief: as §1
# [4] = tested on: A431 (epidermoid carcinoma); assay: Antiproliferative activity (CCK-8 cell viability), A431; details: Homo sapiens, 72 h; for inhibition at 3.3 µM: A-431, Compound concentration: 3.3 μM; for inhibition at 3.3 µM / inhibition at 10 µM: read-out: Antiproliferative activity in cancerous cells, A431 (inhibition of cell growth); for inhibition at 10 µM: A-431, Compound concentration: 10 μM
# Method in brief: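 This growth inhibition assay used A431 cells maintained in Dulbecco's modified Eagle's medium plus 10% fetal bovine serum. Cells were seeded in 96-well plates, treated with compound for 72 h at 37° C., and then given 10 μL CCK-8 solution. After a further 4 h, absorbance was read at 450 nm.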
# HepG2 (liver cancer) = assay: Antiproliferative activity (CCK-8 cell viability), HepG2; details: Homo sapiens, 72 h; for inhibition at 3.3 µM: Compound concentration: 3.3 μM; for inhibition at 3.3 µM / inhibition at 10 µM: read-out: Antiproliferative activity in cancerous cells, HepG2 (inhibition of cell growth); for inhibition at 10 µM: Compound concentration: 10 μM
# Method in brief: as §1
# [5] = tested on: B16F10 (malignant melanoma); assay: Antiproliferative activity (CCK-8 cell viability), B16F10; details: Mus musculus, 72 h; for inhibition at 3.3 µM: B16-F10, Compound concentration: 3.3 μM; for inhibition at 3.3 µM / inhibition at 10 µM: read-out: Antiproliferative activity in cancerous cells, B16F10 (inhibition of cell growth); for inhibition at 10 µM: B16-F10, Compound concentration: 10 μM
# Method in brief: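 Cell growth inhibition was measured in B16F10 malignant melanoma cells with a Cell Counting Kit-8 viability assay. Cells were maintained in DMEM plus 10% fetal bovine serum, seeded at 2,000-5,000 cells/well in 96-well plates, and treated for 72 h at 37° C. Viability was expressed relative to DMSO-treated vehicle control wells.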
# HeLa (cervical cancer) = assay: Antiproliferative activity (CCK-8 cell viability), HeLa; details: Homo sapiens, 72 h, read-out: Antiproliferative activity in cancerous cells, HELA (inhibition of cell growth); for inhibition at 3.3 µM: Compound concentration: 3.3 μM; for inhibition at 10 µM: Compound concentration: 10 μM
# Method in brief: as §1
Structure (SMILES),inhibition at 3.3 µM [1],inhibition at 10 µM [1],inhibition at 10 µM [2],inhibition at 3.3 µM (SW480 (colon cancer)),inhibition at 10 µM (SW480 (colon cancer)),inhibition at 3.3 µM [3],inhibition at 10 µM [3],inhibition at 3.3 µM [4],inhibition at 10 µM [4],inhibition at 3.3 µM (HepG2 (liver cancer)),inhibition at 10 µM (HepG2 (liver cancer)),inhibition at 3.3 µM [5],inhibition at 10 µM [5],inhibition at 3.3 µM (HeLa (cervical cancer)),inhibition at 10 µM (HeLa (cervical cancer)),"inhibition at 30 µM (SW480 (colon cancer); Compound concentration: 30 μM, read-out: Antiproliferative activity in cancerous cells, SW480)","inhibition at 30 µM (HepG2 (liver cancer); Compound concentration: 30 μM, read-out: Antiproliferative activity in cancerous cells, HepG2)","inhibition at 30 µM ([3]; Compound concentration: 30 μM, read-out: Antiproliferative activity in cancerous cells, A549)","inhibition at 30 µM ([4]; A-431, Compound concentration: 30 μM, read-out: Antiproliferative activity in cancerous cells, A431)","inhibition at 30 µM ([5]; B16-F10, Compound concentration: 30 μM, read-out: Antiproliferative activity in cancerous cells, B16F10)"
"CC1=C(CC(=O)O)c2ccc(F)cc2/C1=C\c1cccc(COc2ccccc2)c1 [B10, (Z)-2-(6-Fluoro-2-methyl-1-(3-(phenoxymethyl)benzylidene)-1H-inden-3-yl)-acetic acid]",30 to 50%,≥ 50%,> 80%,< 30%,< 30%,< 30%,≥ 50%,< 30%,≥ 50%,30 to 50%,≥ 50%,< 30%,≥ 50%,< 30%,< 30%,–,–,–,–,–
"CCc1ccc2c(c1)C(CC(=O)O)=C(C)/C2=C/c1cccc(COc2ccccc2)c1 [B11, (Z)-2-(5-Ethyl-2-methyl-1-(3-(phenoxymethyl)benzylidene)-1H-inden-3-yl)acetic acid]",30 to 50%,≥ 50%,> 80%,≥ 50%,≥ 50%,30 to 50%,≥ 50%,≥ 50%,≥ 50%,≥ 50%,≥ 50%,≥ 50%,≥ 50%,< 30%,≥ 50%,–,–,–,–,–
"CC1=C(CC(=O)O)c2cc(C)ccc2/C1=C\c1cccc(COc2ccccc2)c1 [B12, (Z)-2-(2,5-Dimethyl-1-(3-(phenoxymethyl)benzylidene)-1H-inden-3-yl)acetic acid]",≥ 50%,≥ 50%,> 80%,< 30%,< 30%,30 to 50%,≥ 50%,≥ 50%,≥ 50%,< 30%,≥ 50%,< 30%,30 to 50%,< 30%,≥ 50%,–,–,–,–,–
"CC1=C(CC(=O)O)c2c(F)cccc2/C1=C\c1cccc(COc2ccccc2)c1 [B13, (Z)-2-(4-Fluoro-2-methyl-1-(3-(phenoxymethyl)benzylidene)-1H-inden-3-yl)-acetic acid]",≥ 50%,≥ 50%,< 30%,< 30%,< 30%,30 to 50%,30 to 50%,< 30%,30 to 50%,< 30%,30 to 50%,30 to 50%,≥ 50%,30 to 50%,≥ 50%,30 to 50%,30 to 50%,–,–,–
"CC1=C(CCC(=O)O)c2ccccc2/C1=C\c1cccc(COc2ccccc2)c1 [B15, (Z)-3-(2-Methyl-1-(3-(phenoxymethyl)benzylidene)-1H-inden-3-yl)propanoic acid]",< 30%,≥ 50%,< 30%,≥ 50%,≥ 50%,30 to 50%,≥ 50%,≥ 50%,≥ 50%,30 to 50%,≥ 50%,≥ 50%,≥ 50%,30 to 50%,≥ 50%,–,–,–,–,–
"CC1=C(CC(=O)O)c2cc(F)ccc2/C1=C\c1ccc(CN(Cc2ccccn2)c2ccccc2)cc1 [B16, (Z)-2-(5-Fluoro-2-methyl-1-(4-((phenyl(pyridin-2-ylmethyl)amino)methyl)-benzylidene)-1H-inden-3-yl)acetic acid]",≥ 50%,≥ 50%,> 80%,< 30%,< 30%,≥ 50%,≥ 50%,< 30%,≥ 50%,< 30%,≥ 50%,30 to 50%,≥ 50%,30 to 50%,≥ 50%,–,–,–,–,–
"COc1ccc2c(c1)C(CC(=O)O)=C(C)/C2=C/c1cccc(COc2ccccc2)c1 [B20, (Z)-2-(5-Methoxy-2-methyl-1-(3-(phenoxymethyl)benzylidene)-1H-inden-3-yl)-acetic acid]",30 to 50%,30 to 50%,> 80%,30 to 50%,30 to 50%,< 30%,< 30%,< 30%,< 30%,< 30%,< 30%,< 30%,< 30%,< 30%,30 to 50%,–,–,< 30%,< 30%,< 30%
"CC1=C(CC(=O)O)c2cc(F)ccc2/C1=C\c1cccc(COc2cccc(C(C)(C)C)c2)c1 [B21, (Z)-2-(1-(3-((3-(Tert-butyl)phenoxy)methyl)benzylidene)-5-fluoro-2-methyl-1H-inden-3-yl)acetic acid]",≥ 50%,≥ 50%,> 80%,< 30%,30 to 50%,< 30%,≥ 50%,< 30%,30 to 50%,< 30%,30 to 50%,< 30%,≥ 50%,< 30%,≥ 50%,–,–,–,–,–
"COc1ccc2c(c1)/C(=C\c1cccc(COc3ccc(F)cc3)c1)C(C)=C2CC(=O)O [B22, (Z)-2-(1-(3-((4-Fluorophenoxy)methyl)benzylidene)-6-methoxy-2-methyl-1H-inden-3-yl)acetic acid]",30 to 50%,30 to 50%,> 80%,< 30%,< 30%,< 30%,< 30%,< 30%,< 30%,< 30%,< 30%,< 30%,< 30%,< 30%,30 to 50%,–,–,–,–,–
